In PubChem BioAssay (NCI) one finds TGI and GI50 data, which are given here for 13 molecules.

Among the test systems are HCT-116 colon; 786-0 renal; UACC-62 melanoma; A549 NSCLC; NCI-H460 lung; MOLT-4 leukemia; SK-OV-3 ovarian; SW-620 colon; SK-MEL-5 melanoma; OVCAR-4 ovarian; OVCAR-5 ovarian.
Common to all, as to test: NCI anticancer screen, dose series, 48 h

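Protocol summary: plate cells (96-well), add compound at 5 concentrations, incubate 48 h, interpolate endpoints linearly. The concentration for 50% growth inhibition is given as GI50. TGI: concentration producing complete growth inhibition.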

Regarding `CCCCCCCCOC1C(O)C(O)C(O)C(O)C12CO2` (configuration not stated), the TGI with HCT-116 colon, in the experiment with 786-0 renal, with UACC-62 melanoma, in the experiment with A549 NSCLC, with NCI-H460 lung and in the experiment with MOLT-4 leukemia was over 100 µM throughout. In addition, the TGI in the experiment on SK-OV-3 ovarian and in the experiment with SW-620 colon was over 100 µM throughout.

`CC(=O)[C@@]1(C)CC2(CCN(C)CC2)OC1C` (some centres not stated): the TGI in the experiment with HCT-116 colon, with 786-0 renal, in the experiment with SK-MEL-5 melanoma, with A549 NSCLC, with NCI-H460 lung and with MOLT-4 leukemia was over 100 µM in each case. Moreover, the TGI in the experiment with SK-OV-3 ovarian, in the experiment on SW-620 colon, in the experiment on OVCAR-4 ovarian and with OVCAR-5 ovarian was over 100 µM throughout.

In the case of `O=C(c1ccccc1)N1CCN(C(=S)N(C(=O)c2ccccc2)c2ccccc2)C1=S`, the TGI in the experiment with HCT-116 colon turned out to be 12.6 µM; in the experiment with 786-0 renal, 5.31 µM; in the experiment on SK-MEL-5 melanoma it was 26.5 µM; in the experiment on UACC-62 melanoma, 11.4 µM; in the experiment with A549 NSCLC, 19.1 µM; in the experiment on NCI-H460 lung it was 44.7 µM. Besides, the TGI is 30.2 µM in the experiment on SK-OV-3 ovarian, over 43.5 µM with SW-620 colon, 10.9 µM in the experiment on OVCAR-4 ovarian and 42.1 µM with OVCAR-5 ovarian.

In the case of `O=C(c1ccco1)N1CCCN(C(=O)c2ccco2)C1=S`, the TGI in the experiment on HCT-116 colon, in the experiment with 786-0 renal, in the experiment on SK-MEL-5 melanoma, in the experiment with UACC-62 melanoma, with NCI-H460 lung and with MOLT-4 leukemia was over 100 µM throughout. Besides, the TGI in the experiment on SK-OV-3 ovarian, in the experiment with SW-620 colon and in the experiment with OVCAR-5 ovarian was over 100 µM each time.

As to `COc1cc2c(c(OC)c1OC)-c1ccc(SC)c(=O)cc1[C@@H](NCc1ccc(C#N)cc1)CC2`, the TGI in the experiment on HCT-116 colon is 0.0215 µM; in the experiment on 786-0 renal, 48.9 µM; with SK-MEL-5 melanoma, 15.6 µM; with A549 NSCLC, 28.6 µM; in the experiment on MOLT-4 leukemia, over 100 µM; in the experiment on SW-620 colon, over 100 µM. Also, the TGI in the experiment with OVCAR-4 ovarian and in the experiment on OVCAR-5 ovarian was over 100 µM in each case. In addition, in the experiment on OVCAR-5 ovarian, the GI50 was 3.15 µM.

In the case of `[N-]=[N+]=C1N=CN=C1c1ncn[nH]1`, the TGI in the experiment with HCT-116 colon is over 100 µM; in the experiment on 786-0 renal, over 100 µM; in the experiment with SK-MEL-5 melanoma, over 100 µM; in the experiment on UACC-62 melanoma, 56.3 µM; with A549 NSCLC, over 100 µM; with MOLT-4 leukemia, 37.1 µM. The TGI with SK-OV-3 ovarian, in the experiment on SW-620 colon and with OVCAR-4 ovarian was over 100 µM in each case.

Regarding `O=C1CC2(c3ccccc3)ON=C(c3ccccc3)N2c2ccccc2N1` (configuration not stated), the TGI in the experiment with HCT-116 colon was over 100 µM; with 786-0 renal, over 100 µM; with UACC-62 melanoma it was over 100 µM; in the experiment with NCI-H460 lung, over 100 µM; in the experiment with MOLT-4 leukemia, over 100 µM; in the experiment with SK-OV-3 ovarian, 51.7 µM. Moreover, the TGI in the experiment on SW-620 colon, with OVCAR-4 ovarian and in the experiment on OVCAR-5 ovarian was over 100 µM in each case.

Turning to `Nn1c(COc2cccc(OCc3n[nH]c(=S)n3N)c2)n[nH]c1=S`, the TGI in the experiment with HCT-116 colon is over 100 µM; with 786-0 renal it was over 100 µM; in the experiment on UACC-62 melanoma, over 100 µM; in the experiment on A549 NSCLC, over 100 µM; in the experiment with NCI-H460 lung, over 100 µM; in the experiment with MOLT-4 leukemia, 21.7 µM. The TGI in the experiment on SK-OV-3 ovarian, in the experiment on SW-620 colon, with OVCAR-4 ovarian and in the experiment on OVCAR-5 ovarian was over 100 µM in each case.

With `CC1(C)N=C(C(N)=O)c2ncn(N)c2N1`, the TGI in the experiment with HCT-116 colon, in the experiment with 786-0 renal, in the experiment on SK-MEL-5 melanoma, in the experiment with UACC-62 melanoma, with A549 NSCLC and in the experiment with NCI-H460 lung was over 100 µM each time. In addition, the TGI in the experiment on SK-OV-3 ovarian, in the experiment with SW-620 colon, in the experiment with OVCAR-4 ovarian and in the experiment with OVCAR-5 ovarian was over 100 µM in each case.

As for `O=S(=O)(c1ccccc1)n1c2ccc(Br)cc2c2nc3ccccc3nc21`, the TGI in the experiment on HCT-116 colon, in the experiment on 786-0 renal, with SK-MEL-5 melanoma, in the experiment on UACC-62 melanoma, in the experiment with A549 NSCLC and in the experiment with NCI-H460 lung was over 100 µM throughout. The TGI in the experiment on MOLT-4 leukemia, in the experiment with SW-620 colon, in the experiment with OVCAR-4 ovarian and in the experiment with OVCAR-5 ovarian was over 100 µM throughout.

As for `O=CN1CCN(C(=O)c2ccc(Cl)cc2Cl)C1=S`, the TGI in the experiment on HCT-116 colon, in the experiment with 786-0 renal, in the experiment with UACC-62 melanoma, in the experiment with A549 NSCLC, in the experiment on NCI-H460 lung and with MOLT-4 leukemia was over 100 µM in each case. In addition, the TGI in the experiment with SK-OV-3 ovarian, in the experiment on SW-620 colon, in the experiment with OVCAR-4 ovarian and with OVCAR-5 ovarian was over 100 µM each time.

Regarding `CC(C)(C)N=NNc1cn(C2OC(CO)C(O)C2O)c(=O)[nH]c1=O` (configuration not stated), the TGI in the experiment with HCT-116 colon, in the experiment with 786-0 renal, in the experiment on SK-MEL-5 melanoma, in the experiment with UACC-62 melanoma, with A549 NSCLC and in the experiment on NCI-H460 lung was over 100 µM in each case. For the same molecule, the TGI in the experiment with MOLT-4 leukemia was over 100 µM; in the experiment on SK-OV-3 ovarian it was over 100 µM; in the experiment on SW-620 colon it was 34.7 µM; with OVCAR-5 ovarian, over 100 µM.

Consider `Cn1c(=O)c(C(=O)Nc2nc(C34CC5CC(CC(C5)C3)C4)cs2)c(O)c2ccccc21`, for which the TGI with HCT-116 colon, in the experiment on 786-0 renal, in the experiment with SK-MEL-5 melanoma, in the experiment with A549 NSCLC, in the experiment with NCI-H460 lung and in the experiment on SW-620 colon was over 100 µM each time. Also, the TGI with OVCAR-4 ovarian and in the experiment with OVCAR-5 ovarian was over 100 µM throughout.
